Test results reported in ChEMBL document CHEMBL1136282, “Design and synthesis of small chemical inhibitors containing different scaffolds for lck SH2 domain” (Bioorg Med Chem Lett, 2003).
Square brackets hold non-standard residues; d marks the D form. Peptide text beside a SMILES is read from it. pY = N[C@@H](Cc1ccc(OP(=O)(O)O)cc1)C(=O)O

Molecular target: Tyrosine-protein kinase Lck (Homo sapiens, UniProt P06239)
Experiment: Inhibition of binding to p56 Lck tyrosine kinase SH2 domain

Chain of Tyrosine-protein kinase Lck (P06239 whole entry, the tested form may be a part): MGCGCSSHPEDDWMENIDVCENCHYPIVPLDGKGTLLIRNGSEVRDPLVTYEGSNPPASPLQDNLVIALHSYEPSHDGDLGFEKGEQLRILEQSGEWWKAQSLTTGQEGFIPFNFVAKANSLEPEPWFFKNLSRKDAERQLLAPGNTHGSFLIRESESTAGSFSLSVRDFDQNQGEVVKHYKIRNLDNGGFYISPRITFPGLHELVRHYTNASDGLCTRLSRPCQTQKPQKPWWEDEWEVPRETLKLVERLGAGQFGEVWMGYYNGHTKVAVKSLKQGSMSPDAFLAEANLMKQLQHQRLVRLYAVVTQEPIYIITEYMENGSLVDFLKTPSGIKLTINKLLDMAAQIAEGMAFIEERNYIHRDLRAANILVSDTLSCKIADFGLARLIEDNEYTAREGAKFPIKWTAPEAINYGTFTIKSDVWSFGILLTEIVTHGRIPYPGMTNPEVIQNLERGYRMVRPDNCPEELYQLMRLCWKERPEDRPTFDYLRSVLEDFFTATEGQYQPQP

| SMILES | IC50 [µM] |
| --- | --- |
| COC(=O)[C@@H](Cc1ccc(O)c(O)c1)N(C)C(=O)/C=C/c1ccc(O)c(O)c1 | 149 |
| COC(=O)[C@@H](Cc1ccc(O)c(O)c1)NC(=O)/C=C/c1ccc(O)c(O)c1 | 121 |
| COC(=O)[C@@H](Cc1ccc(O)c(O)c1)NC(=O)NCc1ccc(O)c(O)c1 | 98 |
| CC[C@H](C)[C@H](NC(=O)[C@H](CCC(=O)O)NC(=O)[C@H](CCC(=O)O)NC(=O)[C@H](Cc1ccc(OP(=O)(O)O)cc1)NC(C)=O)C(=O)N[C@@H](CCC(=O)O)C(=O)O (Ac-[pY]EEIE-OH) | 1.5 |
| O=C(/C=C/c1ccc(O)c(O)c1)N[C@H](Cc1ccc(O)c(O)c1)C(=O)O | 20 |
| COC(=O)[C@@H](Cc1ccc(O)c(O)c1)/N=C(S)\C=C\c1ccc(O)c(O)c1 | 162 |
| COC(=O)[C@@H](Cc1ccc(O)c(O)c1)NC/C=C/c1ccc(O)c(O)c1 | > 500 |
| O=C(/C=C/c1ccc(O)c(O)c1)O[C@H](Cc1ccc(O)c(O)c1)C(=O)O [ROSMARINIC ACID] | 24 |
